Some test systems named below: MDA-MB-435; Hs-578T; KM12; EKVX; OVCAR-3; SN12C; UACC-257; SK-MEL-2; MDA-N; OVCAR-4; MOLT-4; 786-0; BT-549; SK-MEL-28; A498; LOX IMVI; HCT-116; SK-MEL-5; SF-539; RPMI-8226.
Common to all, as to assay: growth of human tumour cells (NCI), 48 h

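Cells were grown in 96-well plates and exposed to each compound for 48 hours at five concentrations; endpoints were interpolated linearly between bracketing concentrations, or set to the highest concentration if not reached. GI50: concentration for 50% inhibition of growth.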 Activity calls are given as the source filed them. Cut-off read from the data, not from the text of the source: active = GI50 up to about 1.1 µM and inactive = higher.

As for `CCCCCCCCC/C=C1/CC(CO)(COC(=O)CC(C(C)C)C(C)C)OC1=O` (stereo not drawn), the GI50 in the assay on MDA-MB-435 was 2.79 µM (inactive); with Hs-578T, 0.109 µM (active); in the assay on KM12 it was 8.85 µM (inactive); with EKVX, 4.35 µM (inactive); in the assay with OVCAR-3, 13.9 µM (inactive); with SN12C, 2.42 µM (inactive). Besides, the GI50 in the assay on UACC-257 is 12.9 µM (inactive); with SK-MEL-2, 15.1 µM (inactive); with MDA-N it was 0.21 µM (active); in the assay on OVCAR-4, 14.7 µM (inactive); in the assay on MOLT-4 it was 1.16 µM (inactive); in the assay with 786-0, 1.35 µM (inactive). In addition, the GI50 was 14.3 µM (inactive) in the assay on BT-549; 14.4 µM (inactive) in the assay with SK-MEL-28; 3.14 µM (inactive) in the assay with A498; 11.5 µM (inactive) in the assay on LOX IMVI; 13.2 µM (inactive) in the assay on HCT-116; 3.16 µM (inactive) in the assay on SK-MEL-5. For the same molecule, in the assay on SF-539, the GI50 is 10.2 µM (inactive).
On to `CC(=O)OCC1OC(On2ccccc2=S)C(OC(C)=O)C(OC(C)=O)C1OC(C)=O` (stereo not drawn), for which the GI50 in the assay with MDA-MB-435, in the assay with Hs-578T, in the assay with KM12, in the assay with EKVX, with OVCAR-3 and in the assay with SN12C was > 100 µM (inactive) in each case. Besides, the GI50 in the assay on UACC-257 is > 100 µM (inactive); in the assay with SK-MEL-2, > 100 µM (inactive); in the assay with MDA-N, > 100 µM (inactive); in the assay on OVCAR-4 it was > 100 µM (inactive); in the assay with MOLT-4 it was 33.9 µM (inactive); with 786-0, > 100 µM (inactive). Besides, the GI50 with BT-549, in the assay with SK-MEL-28, in the assay with A498, in the assay with LOX IMVI, in the assay on HCT-116 and in the assay with SK-MEL-5 was > 100 µM (inactive) each time. For the same molecule, the GI50 with SF-539 was > 100 µM (inactive).
With `Cc1ccsc1/C=N/Nc1nncc2ccccc12`, the GI50 in the assay with MDA-MB-435, in the assay on Hs-578T, in the assay with KM12, in the assay with EKVX, in the assay with OVCAR-3 and in the assay on SN12C was > 100 µM (inactive) throughout. Moreover, the GI50 in the assay on UACC-257 was > 100 µM (inactive); in the assay on SK-MEL-2, 14.1 µM (inactive); with MDA-N, > 100 µM (inactive); with OVCAR-4, > 100 µM (inactive); in the assay with RPMI-8226, 81.8 µM (inactive); with MOLT-4, 44.8 µM (inactive). In addition, the GI50 is 90.2 µM (inactive) in the assay with 786-0; > 100 µM (inactive) in the assay on BT-549; > 100 µM (inactive) with SK-MEL-28; > 100 µM (inactive) in the assay on A498; 97.1 µM (inactive) in the assay on LOX IMVI; > 100 µM (inactive) with HCT-116. For the same molecule, the GI50 in the assay on SK-MEL-5 was 96.4 µM (inactive).
For the molecule `OC1(c2ccccc2)CSC2=Nc3ccccc3C3CCN1N23` (stereo not drawn), the GI50 in the assay on MDA-MB-435 was 17 µM (inactive); with Hs-578T, 24.2 µM (inactive); with KM12 it was 16.7 µM (inactive); with EKVX, 3.89 µM (inactive); in the assay with OVCAR-3 it was 26.7 µM (inactive); in the assay with SN12C, 23.5 µM (inactive). Also, the GI50 with UACC-257 is 23.4 µM (inactive); in the assay on SK-MEL-2, 15.8 µM (inactive); in the assay with MDA-N, 14.1 µM (inactive); with OVCAR-4, 23.1 µM (inactive); in the assay on MOLT-4, 30.5 µM (inactive); in the assay with 786-0, 18.7 µM (inactive). The GI50 was 23.1 µM (inactive) in the assay on BT-549; 4.16 µM (inactive) in the assay with SK-MEL-28; 14.6 µM (inactive) in the assay on A498; 19 µM (inactive) in the assay with LOX IMVI; 29.3 µM (inactive) with HCT-116; 17.7 µM (inactive) in the assay with SK-MEL-5. The GI50 with SF-539 was 16.9 µM (inactive).
In the case of `CCn1cc(C(=O)O)c(=O)c2cc(F)c(N3CCN(CN4C(=O)/C(=N\NC(=O)c5ccncc5)c5cc(Cl)ccc54)CC3)cc21`, the GI50 is 28.6 µM (inactive) with MDA-MB-435; 45.2 µM (inactive) with Hs-578T; 40.3 µM (inactive) in the assay on KM12; 32.6 µM (inactive) in the assay with EKVX; 39.1 µM (inactive) with OVCAR-3; 69.5 µM (inactive) in the assay on SN12C. In addition, the GI50 with UACC-257 is 37.6 µM (inactive); in the assay on SK-MEL-2 it was 23 µM (inactive); with MDA-N, 50.6 µM (inactive); in the assay with OVCAR-4 it was 36.9 µM (inactive); with MOLT-4, 0.048 µM (active); with 786-0 it was 38.6 µM (inactive). For the same molecule, the GI50 in the assay with BT-549 is 91.6 µM (inactive); with SK-MEL-28, 59.2 µM (inactive); with A498, > 100 µM (inactive); in the assay on LOX IMVI it was 34.3 µM (inactive); in the assay with HCT-116 it was 58.6 µM (inactive); in the assay with SK-MEL-5 it was 42.2 µM (inactive). In the assay with SF-539, the GI50 was 24.7 µM (inactive).
For the molecule `C/C=C1/CN2CCC34c5ccccc5N5C(=O)C(C6CC78c9ccccc9N9C(=O)C=CC(C%10CC7N6C/C%10=C/C)C98)=CC(C1CC23)C54` (stereo not drawn), the GI50 in the assay with MDA-MB-435 was 6.28 µM (inactive); in the assay with Hs-578T, 8.11 µM (inactive); in the assay with KM12, 9.55 µM (inactive); in the assay with EKVX, 6.64 µM (inactive); with OVCAR-3 it was 5.6 µM (inactive); in the assay on SN12C, 5.53 µM (inactive). Also, the GI50 was 5.62 µM (inactive) with UACC-257; 6.53 µM (inactive) in the assay with SK-MEL-2; 5.47 µM (inactive) with MDA-N; 7.01 µM (inactive) with OVCAR-4; 1.11 µM (active) in the assay with MOLT-4; 4.67 µM (inactive) in the assay with 786-0. Moreover, the GI50 in the assay with BT-549 is 8.77 µM (inactive); in the assay with SK-MEL-28, 5.41 µM (inactive); in the assay on A498, 8.81 µM (inactive); in the assay on LOX IMVI, 10.3 µM (inactive); with HCT-116, 5.53 µM (inactive); in the assay with SK-MEL-5 it was 5.83 µM (inactive). Moreover, in the assay on SF-539, the GI50 was 1.11 µM (active).
Turning to `NC(=O)/C=C/NC(=O)/C=N\O`, the GI50 in the assay on MDA-MB-435, in the assay on Hs-578T, with KM12, in the assay on EKVX, with OVCAR-3 and in the assay on SN12C was > 100 µM (inactive) in each case. Also, the GI50 in the assay on UACC-257, with MDA-N, in the assay on OVCAR-4, in the assay with RPMI-8226, in the assay with MOLT-4 and in the assay with 786-0 was > 100 µM (inactive) throughout. Also, the GI50 with BT-549, in the assay on SK-MEL-28, with A498, in the assay on LOX IMVI, in the assay with HCT-116 and in the assay on SK-MEL-5 was > 100 µM (inactive) in each case. Moreover, the GI50 with SF-539 is > 100 µM (inactive).
For the molecule `COC(=O)C[C@H]1[C@]2(C)C3=C(C)[C@H](c4ccoc4)CC3O[C@@H]2[C@@H]2OC(=O)[C@]3(C)CCC(=O)[C@@]1(C)[C@@H]23` (stereo partly drawn), the GI50 was 37.2 µM (inactive) in the assay on MDA-MB-435; 36.1 µM (inactive) in the assay on Hs-578T; > 100 µM (inactive) with KM12; 53 µM (inactive) in the assay on OVCAR-3; 69.7 µM (inactive) in the assay with SN12C; 61 µM (inactive) in the assay on UACC-257. Moreover, the GI50 in the assay with SK-MEL-2 was > 100 µM (inactive); with MDA-N, 49.9 µM (inactive); with OVCAR-4 it was 41.3 µM (inactive); in the assay with RPMI-8226, 19.1 µM (inactive); in the assay with MOLT-4, 20 µM (inactive); with 786-0, 32.3 µM (inactive). Also, the GI50 with BT-549 is 51.5 µM (inactive); with SK-MEL-28, 32.5 µM (inactive); in the assay with A498 it was > 100 µM (inactive); with LOX IMVI, 40.1 µM (inactive); in the assay with HCT-116 it was 35.4 µM (inactive); with SK-MEL-5 it was 56.6 µM (inactive).
Turning to `CC1(C)CCC2(C(=O)OC3OC(CO)C(O)C(O)C3O)CCC3(CO)C(=CCC4C5(C)CC(O)C(O)C(C)(C(=O)OC6OC(CO)C(O)C(O)C6O)C5CCC43C)C2C1` (stereo not drawn), the GI50 in the assay on MDA-MB-435, in the assay with Hs-578T, in the assay with KM12, in the assay on EKVX, in the assay on OVCAR-3 and in the assay on SN12C was > 100 µM (inactive) each time. For the same molecule, the GI50 in the assay with UACC-257, with SK-MEL-2, in the assay with MDA-N, with OVCAR-4, in the assay with MOLT-4 and in the assay with 786-0 was > 100 µM (inactive) throughout. Further, the GI50 with BT-549, in the assay on SK-MEL-28, in the assay on A498, with LOX IMVI, in the assay on HCT-116 and in the assay on SK-MEL-5 was > 100 µM (inactive) throughout. Moreover, the GI50 in the assay with SF-539 is > 100 µM (inactive).
For `Cc1c([C@H](C)[C@@H]2NC[C@@H](C)C[C@H]2O)ccc2c1C[C@H]1[C@H]2CC=C2C[C@@H](O)CC[C@@]21C` [VERATRAMINE], the GI50 is 12.9 µM (inactive) with MDA-MB-435; 20.6 µM (inactive) with Hs-578T; 14.5 µM (inactive) in the assay on KM12; 2.34 µM (inactive) in the assay on EKVX; 15.6 µM (inactive) in the assay with OVCAR-3; 20.4 µM (inactive) with SN12C. For the same molecule, the GI50 is 13.2 µM (inactive) in the assay on UACC-257; 15.7 µM (inactive) in the assay with MDA-N; 12.6 µM (inactive) in the assay on OVCAR-4; 3.29 µM (inactive) in the assay on RPMI-8226; 13.1 µM (inactive) with MOLT-4; 17 µM (inactive) in the assay on 786-0. Further, the GI50 in the assay on BT-549 is 21.1 µM (inactive); in the assay with SK-MEL-28, 17.3 µM (inactive); with A498, 15.2 µM (inactive); with LOX IMVI, 11.6 µM (inactive); with HCT-116 it was 14.3 µM (inactive); with SK-MEL-5, 10.8 µM (inactive).

The values are drawn from ChEMBL document CHEMBL1201862, “PubChem BioAssay data set” (2004).
